Laboratory results reported in the NIST ThermoML archive (doi:10.1016/j.jct.2016.03.034).

Assay: xn = mol fraction of the nth substance listed
Conditions: 100 kPa, Liquid; for viscosity: Capillary tube (Ostwald / Ubbelohde) method; for mass density: Vibrating tube method

O=C1CCCO1 [γ-butyrolactone] + CCn1cc[n+](C)c1.O=S(=O)([N-]S(=O)(=O)C(F)(F)F)C(F)(F)F
Conditions | mass density [kg/m3] | viscosity [mPa·s]
293.15 K, x2 = 0 | 1129.49 | 1.86
293.15 K, x2 = 0.05 | 1189.18 | 2.57
293.15 K, x2 = 0.0995 | – | 3.12
293.15 K, x2 = 0.0996 | 1236.95 | –
293.15 K, x2 = 0.1502 | 1277.22 | 3.83
293.15 K, x2 = 0.2006 | 1310.83 | 4.63
293.15 K, x2 = 0.3 | – | 6.64
293.15 K, x2 = 0.3001 | 1363.28 | –
293.15 K, x2 = 0.4 | – | 9.2
293.15 K, x2 = 0.4021 | 1403.82 | –
293.15 K, x2 = 0.4899 | – | 11.95
293.15 K, x2 = 0.4992 | 1434.01 | –
293.15 K, x2 = 0.6103 | 1461.49 | 16.41
293.15 K, x2 = 0.6912 | 1478 | –
293.15 K, x2 = 0.6995 | – | 20.33
293.15 K, x2 = 0.7817 | 1493.78 | –
293.15 K, x2 = 0.7927 | – | 24.88
293.15 K, x2 = 0.8991 | 1510.97 | 30.67
293.15 K, x2 = 0.9532 | – | 34.26
298.15 K, x2 = 0 | 1124.59 | 1.71
298.15 K, x2 = 0.05 | 1184.22 | 2.41
298.15 K, x2 = 0.0995 | – | 2.94
298.15 K, x2 = 0.0996 | 1231.94 | –
298.15 K, x2 = 0.1502 | 1272.16 | 3.61
298.15 K, x2 = 0.2006 | 1305.75 | 4.35
298.15 K, x2 = 0.3 | – | 6.16
298.15 K, x2 = 0.3001 | 1358.16 | –
298.15 K, x2 = 0.4 | – | 8.37
298.15 K, x2 = 0.4021 | 1398.7 | –
298.15 K, x2 = 0.4899 | – | 10.72
298.15 K, x2 = 0.4992 | 1428.88 | –
298.15 K, x2 = 0.6103 | 1456.36 | 14.47
298.15 K, x2 = 0.6912 | 1472.86 | –
298.15 K, x2 = 0.6995 | – | 17.71
298.15 K, x2 = 0.7817 | 1488.64 | –
298.15 K, x2 = 0.7927 | – | 21.48
298.15 K, x2 = 0.8991 | 1505.84 | 26.32
298.15 K, x2 = 0.9532 | – | 29.01
303.15 K, x2 = 0 | 1119.68 | 1.58
303.15 K, x2 = 0.05 | 1179.23 | 2.24
303.15 K, x2 = 0.0995 | – | 2.71
303.15 K, x2 = 0.0996 | 1226.88 | –
303.15 K, x2 = 0.1502 | 1267.09 | 3.3
303.15 K, x2 = 0.2006 | 1300.66 | 3.97
303.15 K, x2 = 0.3 | – | 5.57
303.15 K, x2 = 0.3001 | 1353.03 | –
303.15 K, x2 = 0.4 | – | 7.49
303.15 K, x2 = 0.4021 | 1393.55 | –
303.15 K, x2 = 0.4899 | – | 9.49
303.15 K, x2 = 0.4992 | 1423.73 | –
303.15 K, x2 = 0.6103 | 1451.19 | 12.66
303.15 K, x2 = 0.6912 | 1467.67 | –
303.15 K, x2 = 0.6995 | – | 15.38
303.15 K, x2 = 0.7817 | 1483.46 | –
303.15 K, x2 = 0.7927 | – | 18.53
303.15 K, x2 = 0.8991 | 1500.66 | 22.48
303.15 K, x2 = 0.9532 | – | 24.66
308.15 K, x2 = 0 | 1114.78 | 1.47
308.15 K, x2 = 0.05 | 1174.26 | 2.07
308.15 K, x2 = 0.0995 | – | 2.48
308.15 K, x2 = 0.0996 | 1221.85 | –
308.15 K, x2 = 0.1502 | 1262.03 | 3.03
308.15 K, x2 = 0.2006 | 1295.56 | 3.66
308.15 K, x2 = 0.3 | – | 5.09
308.15 K, x2 = 0.3001 | 1347.9 | –
308.15 K, x2 = 0.4 | – | 6.72
308.15 K, x2 = 0.4021 | 1388.4 | –
308.15 K, x2 = 0.4899 | – | 8.39
308.15 K, x2 = 0.4992 | 1418.56 | –
308.15 K, x2 = 0.6103 | 1446.01 | 11.08
308.15 K, x2 = 0.6912 | 1462.49 | –
308.15 K, x2 = 0.6995 | – | 13.34
308.15 K, x2 = 0.7817 | 1478.28 | –
308.15 K, x2 = 0.7927 | – | 15.98
308.15 K, x2 = 0.8991 | 1495.47 | 19.26
308.15 K, x2 = 0.9532 | – | 21.15
313.15 K, x2 = 0 | 1109.87 | 1.37
313.15 K, x2 = 0.05 | 1169.29 | 1.92
313.15 K, x2 = 0.0995 | – | 2.32
313.15 K, x2 = 0.0996 | 1216.89 | –
313.15 K, x2 = 0.1502 | 1257.03 | 2.81
313.15 K, x2 = 0.2006 | 1290.56 | 3.37
313.15 K, x2 = 0.3 | – | 4.63
313.15 K, x2 = 0.3001 | 1342.87 | –
313.15 K, x2 = 0.4 | – | 6.09
313.15 K, x2 = 0.4021 | 1383.33 | –
313.15 K, x2 = 0.4899 | – | 7.55
313.15 K, x2 = 0.4992 | 1413.46 | –
313.15 K, x2 = 0.6103 | 1440.89 | 9.84
313.15 K, x2 = 0.6912 | 1457.37 | –
313.15 K, x2 = 0.6995 | – | 11.77
313.15 K, x2 = 0.7817 | 1473.14 | –
313.15 K, x2 = 0.7927 | – | 13.93
313.15 K, x2 = 0.8991 | 1490.3 | 16.67
313.15 K, x2 = 0.9532 | – | 18.26
318.15 K, x2 = 0 | 1104.96 | 1.28
318.15 K, x2 = 0.05 | 1164.33 | 1.76
318.15 K, x2 = 0.0995 | – | 2.12
318.15 K, x2 = 0.0996 | 1211.89 | –
318.15 K, x2 = 0.1502 | 1252 | 2.57
318.15 K, x2 = 0.2006 | 1285.51 | 3.07
318.15 K, x2 = 0.3 | – | 4.15
318.15 K, x2 = 0.3001 | 1337.8 | –
318.15 K, x2 = 0.4 | – | 5.46
318.15 K, x2 = 0.4021 | 1378.25 | –
318.15 K, x2 = 0.4899 | – | 6.65
318.15 K, x2 = 0.4992 | 1408.36 | –
318.15 K, x2 = 0.6103 | 1435.77 | 8.6
318.15 K, x2 = 0.6912 | 1452.23 | –
318.15 K, x2 = 0.6995 | – | 10.2
318.15 K, x2 = 0.7817 | 1467.99 | –
318.15 K, x2 = 0.7927 | – | 12.07
318.15 K, x2 = 0.8991 | 1485.13 | 14.42
318.15 K, x2 = 0.9532 | – | 15.79
323.15 K, x2 = 0 | 1100.05 | 1.2
323.15 K, x2 = 0.05 | 1159.37 | 1.66
323.15 K, x2 = 0.0995 | – | 2.02
323.15 K, x2 = 0.0996 | 1206.9 | –
323.15 K, x2 = 0.1502 | 1247.02 | 2.42
323.15 K, x2 = 0.2006 | 1280.5 | 2.89
323.15 K, x2 = 0.3 | – | 3.89
323.15 K, x2 = 0.3001 | 1332.77 | –
323.15 K, x2 = 0.4 | – | 4.97
323.15 K, x2 = 0.4021 | 1373.17 | –
323.15 K, x2 = 0.4899 | – | 6.15
323.15 K, x2 = 0.4992 | 1403.26 | –
323.15 K, x2 = 0.6103 | 1430.64 | 7.81
323.15 K, x2 = 0.6912 | 1447.09 | –
323.15 K, x2 = 0.6995 | – | 9.19
323.15 K, x2 = 0.7817 | 1462.82 | –
323.15 K, x2 = 0.7927 | – | 10.76
323.15 K, x2 = 0.8991 | 1479.92 | 12.78
323.15 K, x2 = 0.9532 | – | 13.93
